According to article PMC11627468, “Novel enzyme‐resistant pancreatic polypeptide analogs evoke pancreatic beta‐cell rest, enhance islet cell turnover, and inhibit food intake in mice” (Biofactors (Oxford, England), 2024):

Experiments:
C57BL/6 mice [1] = experiment: Glucose‐stimulated plasma insulin in mice; assay type: in vivo; details: peptide 25 nmol/kg with glucose 18 mmol/kg i.p., versus glucose control; n = 6
Protocol: (§1) Acute in vivo studies were conducted in groups (n = 6) of 4‐month‐old male C57BL/6 mice (Envigo, Huntington, UK). All mice were maintained on standard rodent chow (10% fat, 30% protein, and 60% carbohydrate; Trouw Nutrition, Northwich, UK), and drinking water provided ad libitum. Mice were housed individually and kept in a temperature‐controlled environment (22 ± 2°C), with a 12‐h light/dark cycle. Experiments were carried out in accordance with the UK Animal Scientific Procedures Act 1986 as well as being approved by Ulster University Animal Ethics Review Committee (AWERB) committee and protected by the UK Home Office Animal project license number PPL2902, approved on April 26, 2021. Acute effects of test peptides on food intake were tested in overnight (16 h) fasted mice. Briefly, fasted mice were administered an intraperitoneal (i.p.) injection of saline vehicle (0.9% (w/v) NaCl) alone or in combination with test peptides (each at 25, 75, or 200 nmol/kg bw) and cumulative food intake measured at regular intervals, to assess the pharmacodynamic profile of the test peptides. For food intake studies, mice were provided with preweighed rodent maintenance diet in their food hopper at t = 0 min, which was then re‐weighed at each timepoint with all due care taken to account for any wastage or crumbling of the food pellets. In this regard, the investigator was present at all times during the 180‐min test period to ensure accuracy and consistency in all measurements. Furthermore, effects of PP or related peptides (25 nmol/kg bw) on glucose homeostasis and insulin secretion were evaluated in overnight fasted mice following i.p. injection of glucose alone (18 mmol/kg bw) or in combination with PP peptides (each at 25 nmol/kg bw). […] Blood glucose was measured immediately using a hand‐held Ascencia Contour blood glucose meter (Bayer Healthcare, Newbury, Berkshire, UK). For plasma insulin, blood was collected in chilled fluoride/heparin‐coated microcentrifuge tubes (Sarstedt, Numbrecht, Germany) and centrifuged using a Beckman microcentrifuge (Beckman Instruments, Galway, Ireland) for 10 min at 12,000 rpm. Plasma was separated and stored at −20°C, until determination of plasma insulin by radioimmunoassay.[23]

BRIN‐BD11 beta‐cells = experiment: Beta‐cell proliferation (Ki‐67 staining); assay type: cell-based; details: peptide 10^−6 M, versus control cultures, n = 3
Protocol: (§2) To assess the effects of PP and related peptides (10^−8 and 10^−6 M) on beta‐cell proliferation and apoptosis, BRIN‐BD11 beta‐cells were seeded onto sterilized, clear‐glass coverslips (16 mm diameter) and placed in 12‐well plates (Falcon Ltd) at a density of 40,000 cells per well and cultured for 18 h. Media control (11.1 mM glucose), GLP‐1 (10^−8 and 10^−6 M), and a cytokine cocktail mix (IL‐1β [100 U/mL], IFNγ [20 U/mL], TNFα [200 U/mL], Sigma Aldrich, UK) were employed as controls, as appropriate. Cells were then rinsed with PBS and fixed using 4% paraformaldehyde. After antigen retrieval with sodium citrate buffer at 95°C for 20 min, blocking was performed using 2% bovine serum albumin (BSA) for 45 min. For proliferation studies, the slips were then incubated at 37°C with rabbit anti‐Ki‐67 primary antibody (Abcam, ab15580), and subsequently with Alexa Fluor® 488 secondary antibody. Coverslips were mounted onto polylysine‐coated microscope slides using a 50:50 glycerol:PBS solution and stored at 4°C until required for analysis. To assess the ability of PP peptides to protect against cytokine‐induced apoptosis, cells were seeded, washed, and fixed as above, with the exception that the media was supplemented with the cytokine mix. The slips were then incubated at 37°C with TUNEL reaction mix for 60 min (Roche Diagnostics, Germany), and mounted onto microscope slides. To assess receptor specificity, co‐incubation of PP peptides with the well characterized NPY4R antagonist, (S)‐VU0637120,[24] at 10^−5 M was employed for beta‐cell proliferation experiments, conducted as detailed above. All slides were viewed using a fluorescent microscope (Olympus System Microscope, model BX51; Southend‐on‐Sea, UK) and photographed by DP70 camera adapter system. Proliferation/TUNEL positive frequency was determined using the cell‐counter function on ImageJ Software and expressed as % of total cells analyzed.

[2] = target: T1, purified human DPP‐4 enzyme (Homo sapiens, UniProt P27487); experiment: In vitro DPP‐4 degradation; assay type: in vitro ADME
T1 construct: purchased Sigma-Aldrich
T1 sequence (P27487 whole entry): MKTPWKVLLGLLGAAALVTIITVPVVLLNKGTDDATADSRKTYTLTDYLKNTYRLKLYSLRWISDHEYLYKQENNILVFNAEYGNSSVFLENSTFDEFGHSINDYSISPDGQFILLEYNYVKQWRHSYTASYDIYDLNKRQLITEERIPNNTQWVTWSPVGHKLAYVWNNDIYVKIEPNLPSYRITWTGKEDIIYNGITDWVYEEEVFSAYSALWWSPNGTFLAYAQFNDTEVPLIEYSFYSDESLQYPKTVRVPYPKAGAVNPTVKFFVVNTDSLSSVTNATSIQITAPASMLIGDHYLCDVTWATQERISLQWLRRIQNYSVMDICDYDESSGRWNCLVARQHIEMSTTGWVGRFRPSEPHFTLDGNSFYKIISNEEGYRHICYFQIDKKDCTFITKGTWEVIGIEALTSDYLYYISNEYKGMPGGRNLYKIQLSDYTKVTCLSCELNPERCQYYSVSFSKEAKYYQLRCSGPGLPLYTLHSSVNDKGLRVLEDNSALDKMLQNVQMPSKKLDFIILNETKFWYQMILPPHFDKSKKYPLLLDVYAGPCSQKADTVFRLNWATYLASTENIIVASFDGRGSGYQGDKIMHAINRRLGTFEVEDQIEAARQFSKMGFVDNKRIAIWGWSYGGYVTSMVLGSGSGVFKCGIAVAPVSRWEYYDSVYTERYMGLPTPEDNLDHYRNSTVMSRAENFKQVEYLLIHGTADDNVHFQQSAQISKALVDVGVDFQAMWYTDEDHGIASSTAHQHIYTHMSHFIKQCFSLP
Protocol: PP peptides (50 μg) were incubated at 37°C for 0–8 h with 5 μL of purified human DPP‐4 enzyme (0.01 U/L, Sigma‐Aldrich, Gillingham, UK). Degradation reactions were terminated via the addition of 10 μL 10% (v/v) trifluoroacetic acid/water solution. Reaction mixes were separated by reverse phase rp‐HPLC using a Phenomenex C‐18 analytical column (250 × 4.6 mm^2) with UV absorbance detection at 214 nm (ThermoQuest SpectraSystem UV2000 detector). HPLC peaks of interest were collected and analyzed by MALDI‐TOF MS on a Perseptive Biosystems Voyager‐DE Biospectrometry (Hertfordshire, UK).

NPY4R = target: T2, NPY4R (Rattus norvegicus, UniProt Q63447); experiment: Receptor specificity: beta‐cell proliferation with NPY4R antagonist (S)‐VU0637120; assay type: cell-based; details: peptide 10^−6 M co‐incubated with NPY4R antagonist (S)‐VU0637120 10^−5 M; Ki‐67; n = 3
T2 construct: endogenous in cells; host or cells: BRIN-BD11 beta cells
T2 sequence (Q63447 whole entry): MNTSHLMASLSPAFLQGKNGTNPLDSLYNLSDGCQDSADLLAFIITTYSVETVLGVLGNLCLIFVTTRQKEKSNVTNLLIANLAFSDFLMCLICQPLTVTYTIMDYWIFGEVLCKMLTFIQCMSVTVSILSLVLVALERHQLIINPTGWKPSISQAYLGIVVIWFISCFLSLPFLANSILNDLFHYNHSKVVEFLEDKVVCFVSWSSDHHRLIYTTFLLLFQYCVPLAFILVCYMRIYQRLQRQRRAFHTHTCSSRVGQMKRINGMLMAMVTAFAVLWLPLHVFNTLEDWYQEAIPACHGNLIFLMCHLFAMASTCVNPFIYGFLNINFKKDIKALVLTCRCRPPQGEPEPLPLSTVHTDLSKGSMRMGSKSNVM
Protocol: as §2, with “The slips were then incubated at 37°C with TUNEL reaction mix for 60 min (Roche Diagnostics, Germany), and mounted onto microscope slides. To assess receptor specificity, co‐incubation of PP peptides with the well characterized NPY4R antagonist, (S)‐VU0637120,[24] at 10^−5 M was employed for beta‐cell proliferation experiments, conducted as detailed above. All slides were viewed using a fluorescent microscope (Olympus System Microscope, model BX51; Southend‐on‐Sea, UK) and photographed by DP70 camera adapter system.” left out

[3] = in vivo; cited from earlier work
Protocol: Despite these prominent therapeutically exploitable advantages, clinical utilization of native PP as a positive NPY4R modulator is limited by a short circulatory half‐life of less than 7 min.[17] This appears to be due to rapid cleavage of the N‐terminal dipeptide, Ala^1‐Pro^2, from PP by the ubiquitous enzyme dipeptidyl peptidase‐4 (DPP‐4).[18] […] As such, DPP‐4 resistant PP mole ...

C57BL/6 mice [4] = experiment: Glucose tolerance in mice; assay type: in vivo; details: peptide 25 nmol/kg i.p. conjointly with glucose 18 mmol/kg, overnight fasted mice; n = 6
Protocol: as §1, with “For plasma insulin, blood was collected in chilled fluoride/heparin‐coated microcentrifuge tubes (Sarstedt, Numbrecht, Germany) and centrifuged using a Beckman microcentrifuge (Beckman Instruments, Galway, Ireland) for 10 min at 12,000 rpm. Plasma was separated and stored at −20°C, until determination of plasma insulin by radioimmunoassay.[23]” left out

**Q.** What does the source list for `CC[C@H](C)[C@H](NC(=O)[C@H](Cc1ccc(O)cc1)NC(=O)[C@H](CCCNC(=N)N)NC(=O)[C@H](CCCNC(=N)N)NC(=O)[C@H](CC(C)C)NC(=O)[C@H](CC(=O)O)NC(=O)[C@H](C)NC(=O)[C@H](C)NC(=O)[C@H](Cc1ccc(O)cc1)NC(=O)[C@H](CCC(N)=O)NC(=O)[C@H](C)NC(=O)[C@H](CCSC)NC(=O)[C@H](CCC(N)=O)NC(=O)[C@H](CCC(=O)O)NC(=O)[C@@H]1CCCN1C(=O)[C@@H](NC(=O)[C@H](C)NC(=O)[C@H](CC(N)=O)NC(=O)[C@H](CC(=O)O)NC(=O)CNC(=O)[C@@H]1CCCN1C(=O)[C@H](Cc1ccc(O)cc1)NC(=O)[C@@H](NC(=O)[C@@H]1CCCN1C(=O)[C@H](CCC(=O)O)NC(=O)[C@H](CC(C)C)NC(=O)[C@@H]1CCCN1C(=O)[C@H](C)N)C(C)C)[C@@H](C)O)C(=O)N[C@@H](CC(N)=O)C(=O)N[C@@H](CCSC)C(=O)N[C@@H](CC(C)C)C(=O)N[C@H](C(=O)N[C@@H](CCCNC(=N)N)C(=O)N1CCC[C@H]1C(=O)N[C@@H](CCCNC(=N)N)C(=O)N[C@@H](Cc1ccc(O)cc1)C(N)=O)[C@@H](C)O` [PP, Pancreatic polypeptide]?
**A.** glucose‐induced insulin secretion (plasma insulin) (C57BL/6 mice [1]): slightly decreasing (p = <0.05 to 0.01); BRIN‐BD11 cell proliferation (BRIN‐BD11 beta‐cells): significantly (p < 0.001) enhanced; DPP‐4 mediated degradation, outcome in words [2]: N‐terminal di‐peptide cleavage to yield PP(3–36); dependence of beta‐cell proliferative benefit on NPY4R signaling (NPY4R): dependent on NPY4R signaling; circulatory half‐life [3]: less than 7 min; glucose homeostasis (blood glucose) (C57BL/6 mice [4]): Neither native PP, nor related PP analogs, exerted any effect
